Read-outs that look alike come from different tables or passages of the source. Each block holds one compound with its values, some of them ahead of it.
Key:
[1] = Static (DC) electric field induced nucleation of aged supersaturated aqueous solutions; polymorph by x-ray powder diffraction; assay type: physicochemical; settings: for percent of the exposed solutions that nucleated within the 10-minute exposure time: 6×10^5 V/m DC field, γ glycine; for timescale on which macroscopic crystals form: supersaturated aqueous solution subjected to static electric field
Protocol: Great care was taken to exclude dust from samples. Supersaturated solutions were generated by heating the tubes to 62-64° C. and holding them at that temperature in an ultrasonicator overnight.
A chamber was constructed consisting of two brass electrodes separated by a 5 mm insulating gap, with a hole drilled down through the center, parallel to the gap-electrode interface, with a diameter large enough to accommodate the test tube, to create a high voltage chamber. Test tubes containing the aged solutions were placed in the high voltage chamber.
A DC voltage was applied across the electrodes, large enough to produce electric fields in the range of 400,000 to 800,000 V/m. Tests tubes containing the aged solutions were placed in the high-voltage chamber. […] If crystals formed in the test tubes, the crystals were removed from the solution and dried. The structure of these crystals was analyzed by grinding up the crystal into a powder and obtaining an x-ray powder diffraction pattern.
(§1) The supersaturated solutions were in the concentration range of 5.5 to 6.0 molal. […] These solutions had supersaturations (SS) ranging from 1.85 to 2.0; SS=c/csat, where csat is the saturation concentration.
Solutions were aged for 2 to 5 weeks and exposed to a 6×10^5 V/m DC field for 10 minutes. Semi-cylindrical electrodes were constructed from a 5 cm×5 cm×5.5 cm block of brass, with the center drilled out so that the sample tubes would fit snugly, and then split in half and material removed to create a 5 mm gap, as shown in FIG. 1. […] All sharp edges were rounded in the actual electrodes. The electrodes are insulated and held firmly in position by Delrin plates, screwed together to make a covered box, with 5 mm thick spacers to hold the cylindrical electrodes at the proper spacing. There are two long narrow gaps in the insulation, matching the electrode gap 20, so that most of the length of the sample tube is visible from either side, and there is a small hole in the bottom insulating plate, with a mount for an optical fiber. A Glassman EH regulated power supply provided 0-15 kV DC.
A low power monitoring continuous-wave laser beam at a wavelength of 532 nm, defocused in one direction with a cylindrical lens to generate a pencil-shaped beam, was directed through the electrode gap 20 and illuminated the length of the sample tube. The transmitted light was imaged on white paper. Light scattered perpendicular to the beam was collected with an optical fiber attached at the bottom of the cell and monitored with a power meter.
(§2) Crystals formed in the test tubes were removed from the solution and dried. The structure of these crystals was analyzed by grinding up the crystal into a powder and obtaining an x-ray powder diffraction pattern.

[2] = Protocol: as §1, §2
Towler, C. S. et al., Journal of the American Chemical Society, Vol. 126, pp. 13347-13353 (2004).

[3] = supersaturated aqueous solutions
Description: Such species, when subjected to a DC electric field, will tend to migrate toward the electrode with the opposite charge, effectively increasing the supersaturation near the electrode, which in itself can be responsible for inducing nucleation.

[4] = room temperature, approximately 20° C., water; cited from earlier work
[5] = average charge on a glycine molecule is zero; cited from earlier work

- percent of the exposed solutions that nucleated within the 10-minute exposure time ([1]; 1.85 SS, after 16 days aging): 24%
- percent of the exposed solutions that nucleated within the 10-minute exposure time ([1]; 1.9-2.0 SS, after 14 days aging): 33%
- percent of the exposed solutions that nucleated within the 10-minute exposure time ([1]; 1.9-2.0 SS, after 36 days aging): 40%
- % samples mixed α + γ ([1]; SS 1.85, DC field): 0%
- % samples pure α ([1]; SS 1.85, DC field): 50%
- % samples pure γ ([1]; SS 1.85, DC field): 50%
- % samples mixed α + γ ([1]; SS 1.9–2.0, DC field): 0%
- % samples pure α ([1]; SS 1.9–2.0, DC field): 0%
- % samples pure γ ([1]; SS 1.9–2.0, DC field): 100%
- time until crystallization observed ([1]; electric field strength 600,000 V/m): 30 to 90 min
- induction of nucleation by field exposure ([1]; field of 400,000 V/m, aged solutions): not sufficient to induce nucleation
- timescale on which macroscopic crystals form [1]: hours
- Spontaneous nucleation rate for a ten-minute time window ([2]; 1.85 SS, no field): 0.02%
- % samples mixed α + γ ([2]; SS 1.85, Spontaneous): 0%
- % samples pure α ([2]; SS 1.85, Spontaneous): 86%
- % samples pure γ ([2]; SS 1.85, Spontaneous): 14%
- % samples mixed α + γ ([2]; SS 1.9–2.0, Spontaneous): 27%
- % samples pure α ([2]; SS 1.9–2.0, Spontaneous): 13%
- % samples pure γ ([2]; SS 1.9–2.0, Spontaneous): 60%
- pH of aqueous glycine solutions exposed to DC fields [3]: 6.4-6.5
SMILES: NCC(=O)O [glycine]
- saturation concentration csat [4]: 3.0 molal
- isoelectric point (pH) [5]: 6.0

- timescale on which macroscopic crystals form [1]: minutes
SMILES: C[C@H](N)C(=O)O [L-alanine]

From patent US7879115B2, “Method for using a static electric field to induce crystallization and to control crystal form” (Intellectual Ventures Holding 19, LLC, priority 2004, dated 2011)
